Test results: US20210108198A1, “APPLICATION OF COMPOUND OR TRADITIONAL CHINESE MEDICINE EXTRACT IN PREPARATION OF NUCLEIC ACID DELIVERY AGENT AND RELATED PRODUCTS THEREOF” (INSTITUTE OF BASIC MEDICAL SCIENCES CHINESE ACADEMY OF …, priority 2017, published 2021)
Entries after “also recorded” stand apart in the source; their conditions may differ.

Key:
[1] = tested on: MRC-5 cell; experiment: RT-qPCR detection of nucleic acid delivered by lipid into MRC-5 cells; type: cell-based
Experimental: (§1) 3.1 NCI-N87 cell (gastric cancer cell), MRC-5 cell (lung fibroblast), A549 cell (lung cancer cell) were cultured to logarithmic growth phase, and then plated to a six-well plate at cell density of 1×10^6/2 mL medium/well; MRC-5 cell was cultured in Eagle's MEM medium (MEM, Gibco); A549 cell was cultured in Ham's F-12 medium (HyClone); NCI-N87 cell was cultured in RPMI-1640 medium (HyClone); followed by incubation overnight at 37° C., and the follow-up experiments were performed after the cells were attached to the walls.
(§2) 3.3 After co-incubation with the small RNA for 3 hours, the cells were washed 2-3 times with PBS. The cells were harvested with TRIzol lysis buffer, and the total RNA was extracted. The abundance of small RNA that entered cells was detected by RT-qPCR, and the localization of RNA was detected by fluorescence in situ hybridization; protocols of each detection method were as follows:
(§3) 3.3.2 RT-qPCR Detection of Small RNA (SYBR Green Dye Method)
The stem-loop primer used in the reverse transcription process was synthesized by Beijing Tsingke Biotechnology Co., Ltd. (U6 RT primer: […] ATG (SEQ ID NO: 21); HJT-sRNA-m7 RT stem-loop primer: […] AA (SEQ ID NO: 22)).
Both the forward and reverse primers of the amplification reaction were designed and synthesized by Beijing Tsingke Biotechnology Co., Ltd. (U6 F Primer: […] (SEQ ID NO: 23), U6 R Primer: […] (SEQ ID NO: 24), HJT-sRNA-m7 F Primer: […] (SEQ ID NO: 25), HJT-sRNA-m7 R Primer: […] (SEQ ID NO: 26)).
3) The relative expression level was calculated by 2-ΔCt method.
(§4) 3.1.3 After co-incubation with cells for 12-24 hours, the cells were washed twice with PBS. The cells were harvested with TRIzol lysis buffer (purchased from Sigma-Aldrich), and total RNA was extracted.

[2] = tested on: A549 cell; experiment: RT-qPCR detection of nucleic acid delivered by lipid into A549 cells; type: cell-based, human
Experimental: as §1
4) Lipid nucleic acid mixture: the mixture of lipid and HJT-sRNA-m7 prepared from the step 2 were added into cells and mixed, and the final concentration of RNA was kept at 200 nM.
as §2
3.3.1 RT-qPCR Detection of Small RNA (Taqman Probe Method)
as §3
Mixtures of soybean PC, lipid No. 11 (18:0/18:2) and lipid No. 12 (16:0/18:2), and various small RNA (see below Table 3) were prepared by the reverse evaporation method and then added into A549 cell line (the final concentration of sRNA was 200 nM); the negative control group (control) was directly added with the same concentration of sRNA; the positive control group (RNAimax) was transfected with Lipofectamine RNAimax (transfection reagent 6 μl/well). The abundance of sRNA in the cells was detected by Taqman probe after 3 hours, and the relative expression level of sRNA was calculated by 2-ΔCt method.
as §4, with “extracted. The abundance of HJT-sRNA-m7 that entered the cells was detected by RT-qPCR; the protocols were as follows:” for “extracted.”
4368813) was used to reverse transcribe sRNA to cDNA by stem-loop method (see, e.g. Real-time quantification of microRNAs by stem-loop RT-PCR, Nucleic Acids Res. 2005 Nov. 27; 33(20):e179, incorporated by reference herein).

[3] = tested on: A549 cells; experiment: Digital PCR (ddPCR) detection of the efficiency of nucleic acid delivery by lipid; type: cell-based, human
Experimental: (§5) 2.2 Experimental method: the total cellular RNA was collected and extracted by TRIzol lysis buffer according to the above methods, and reverse transcribed to cDNA using High capacity cRNA Reverse Transcription Kit, and the cDNA from different groups was subject to digital PCR reaction. Refering to the QX200 Droplet Reader and QuantaSoft Software manual for the protocols, the results were analyzed using QuantaSoft software.
as §5, with “method:” for “method: the”, “total” for “total cellular”, “method,” for “methods,”, “subjected” for “subject”, “Refer” for “Refering”, “protocols;” for “protocols,”
(§6) 2.2 Experimental method: Total RNA was collected and extracted by TRIzol lysis buffer according to the above method, and reverse transcribed to cDNA using TaqMan™ MicroRNA Reverse Transcription KitHigh, and the cDNA from different groups was subjected to digital PCR reaction. Refer to the QX200 Droplet Reader and QuantaSoft Software manual for the protocols; the results were analyzed using QuantaSoft software.
as §6, with “reversed” for “reverse transcribed”, “High capacity cRNA” for “TaqMan™ MicroRNA”, “Kit,” for “KitHigh,”

[4] = tested on: A549 cells; experiment: Flow cytometry detection of the efficiency of nucleic acid delivery by lipid; type: cell-based, human; conditions: boiling method
Experimental: Experimental materials: A549 cells (purchased from the Cell Center of the Chinese Academy of Medical Sciences), FAM-sRNA (purchased from Ribobio Biotechnology Co., Ltd.), lipid No. 41, Accuri® C6 instrument (purchased from BD, USA).
Experimental methods: PGY-sRNA-6-FAM was dissolved in 100 μl water, mixed with 4 μl lipid, and prepared by boiling method. Then the mixture was dropped into A549 cells, and after 6 hours of co-incubation, the samples were collected for detection as follows: firstly wash three times with PBS, then digest with trypsin for 3 minutes and remove trypsin, wash with PBS again and then blow down the cells. The detection was performed using Accuri® C6 instrument.
Experimental Method: PGY-sRNA-6-FAM was dissolved in 100 μl water, and mixed with 4 μl lipid, and prepared into lipid-sRNA mixture by boiling method. Then, the mixture was dropped into A549 cells, and after 6 hours of co-incubation, the samples were collected and washed three times with PBS, then digested with trypsin into single cells, washed with re-suspended with PBS and then blown down for Accuri® C6 instrument detection.
Experimental Method: FAM-sRNA was dissolved in 100 μl water, and mixed with 4 μl lipid, prepared by boiling method. Then, the lipid-sRNA mixture was dropped into A549 cells, and after 6 hours of co-incubation, the samples were collected and washed three times with PBS, then digested into single cells with trypsin, re-suspended with PBS and then blown down for Accuri® C6 instrument detection.

[5] = tested on: A549 cells; experiment: Confocal fluorescence microscopy of nucleic acid delivered by lipid in cells; type: cell-based, human; conditions: 4 μl lipid, boiling method; 6 hours of co-incubation
Experimental: Experimental materials: A549 cells (purchased from the Cell Center of the Chinese Academy of Medical Sciences), PGY-sRNA-6-Cy3 (purchased from Ribobio Biotechnology Co., Ltd.), lipid No. 41, Zeiss LSM780 (purchased from Zeiss, Germany), Alexa Fluor® 488 phalloidin (purchased from Invitrogen, USA), DAPI (purchased from Invitrogen, USA), paraformaldehyde (purchased from sigma, USA).
(§7) Experimental methods: PGY-sRNA-6-FAM was dissolved in 100 μl water, mixed with 4 μl lipid, and prepared by the boiling method. Then the mixture was dropped into A549 cells, and after 6 hours of co-incubation, the samples were washed three times with PBS, fixed with 4% paraformaldehyde, washed three times with PBS, stained with Alexa Fluor® 488 phalloidin for 30 min, washed 3 times with PBS, and stained with DAPI for 5 min, washed with PBS, and then sealed.
as §7, with “method:” for “methods:”, “water, and” for “water,”, “by” for “by the”, “Then,” for “Then”, “PBS washed,” for “washed with PBS,”

[6] = In vivo delivery of single-stranded sRNA by single lipid via gavage (blood, stomach, small intestine, liver); set-up: species or system C57 mice; conditions: 10 μl lipid, 1 nmol each sRNA (PGY-sRNA-23/-26/-32), heating method, 6 hours or 12 hours after administration
Source text: Tissues sampled: live/stomach/small intestine.

[7] = boiling (heating) method, RNA 100 nM, 12 hours (No. 37: 3 hours)
[8] = boiling (heating) method, RNA 100 nM, 2.5 μL single lipid, 12 hours
[9] = reverse evaporation method, 6 hours (No. 39: 6 hours, 12 hours)

| SMILES | amount of HJT-sRNA-m7 that entered the cells (RT-qPCR) ([1]; Example 2-1, FIG. 33, double-stranded 100 nM, boiling method 100° C. 30 min, 24 hours) | delivery of double-stranded HJT-sRNA-m7 by single lipid (real-time PCR) ([1]; boiling (heating) method, RNA 100 nM) | delivery of single-stranded HJT-sRNA-m7 by single lipid (real-time PCR) [1, 7] | delivery of double-stranded HJT-sRNA-m7 by single lipid (real-time PCR) [2, 8] | delivery of single-stranded HJT-sRNA-m7 by single lipid (real-time PCR) [2, 7] | delivery of HJT-sRNA-m7 dsRNA (ddPCR) ([3]; boiling method, 6 hours) | delivery of HJT-sRNA-m7 dsRNA (ddPCR) [3, 9] | efficiency in delivering PGY-sRNA-6 single-stranded RNA (flow cytometry) ([4]; PGY-sRNA-6-FAM, 4 μl lipid, 6 hours of co-incubation) | efficiency of nucleic acid delivery by flow cytometry, in words ([4]; PGY-sRNA-6-FAM, 6 hours) | entry of PGY-sRNA-6-Cy3 observed under the confocal microscopy [5] | entry of single-stranded small RNA into mouse blood (RT-qPCR) [6] | delivery effect relative to RNAiMAX (real-time PCR) ([2]; double-stranded HJT-sRNA-m7 100 nM, boiling method, 12 hours, FIG. 96) | delivery of double-stranded HJT-sRNA-m7 by single lipid (real-time PCR) ([2]; reverse evaporation method, RNA 100 nM, 12 hours) | efficiency of delivering PGY-sRNA-6 single-stranded RNA relative to RNAiMAX (flow cytometry) ([4]; 6 hours, FIG. 97) |
| --- | --- | --- | --- | --- | --- | --- | --- | --- | --- | --- | --- | --- | --- | --- |
| CCCCCC/C=C\CCCCCCCC(=O)O[C@H](COC(=O)CCCCCCCCCCCCCCC)COP(=O)(O)OCCN [No. 38, (2-aminoethoxy)[(2R)-2-[(9Z)-hexadec-9-enoyloxy]-3-(hexadecanoyloxy)propoxy]phosphinic acid] | effectively delivered nucleic acids into MRC-5 cells, showing an effect close to the transfection reagent RNAiMAX | delivered double-stranded RNA into A549 and MRC-5 cells; also recorded: about twice that of RNAiMAX | the efficiency of delivery was much higher than that of RNAiMAX | delivered double-stranded RNA into A549 and MRC-5 cells | the efficiency of delivery was much higher than that of RNAiMAX | could effectively deliver HJT-sRNA-m7 dsRNA into A549 cells | could effectively deliver HJT-sRNA-m7 dsRNA into A549 cells | 72.5% | close to that of the positive control RNAiMAX | could effectively deliver double-stranded nucleic acid into A549 cells | could effectively deliver sRNA single-stranded nucleic acid into mouse blood via oral administration; also recorded: the delivery effect was better than POPC and Lipofectamine RNAiMAX | – | – | – |
| CCCCCC/C=C\CCCCCCCCCC(=O)O[C@H](COC(=O)CCCCCCC/C=C\CCCCCC)COP(=O)(O)OCCN [No. 39, (2-aminoethoxy)[(2R)-3-[(9Z)-hexadec-9-enoyloxy]-2-[(11Z)-octadec-11-enoyloxy]propoxy] phosphinic acid] | – | – | – | – | – | – | could effectively deliver HJT-sRNA-m7 dsRNA into A549 cells | – | – | – | – | – | – | – |
| CCCCCCCC/C=C\CCCCCCCCCCCCCC(=O)O[C@H](COC(=O)CCCCCCCCCCCCCC)COP(=O)(O)OCCN [No. 64, 1-pentadecanoyl-2-nervonoyl-sn-glycero-3-phosphoethanolamine] | – | – | – | delivered HJT-sRNA-m7 double-stranded RNA into A549 cells | – | – | – | – | – | could effectively deliver single-stranded RNA into A549 cells | could effectively deliver sRNA single-stranded nucleic acid into mouse blood via oral administration; also recorded: the delivery effect was better than POPC and Lipofectamine RNAiMAX | about 3 times that of RNAiMAX | delivered HJT-sRNA-m7 double-stranded RNA into A549 cells | ½ |
